Laboratory results: patent US20220354098A1, “Genetically Modified Non-Human Animals and Methods of Use Thereof” (YALE UNIVERSITY, priority 2019, published 2022)

Tests used:
[1] = molecular target: T1, scavenger receptor B1 (SR-B1) (Mus musculus, UniProt Q61009); assay: SR-B1 inhibitors in RGSKI mice: survival of transfused human RBCs in peripheral blood; format: in vivo; conditions: 2 mg per mouse, one hour before human RBC infusion
T1 construct: endogenous in cells
T1 sequence (Q61009 1-509): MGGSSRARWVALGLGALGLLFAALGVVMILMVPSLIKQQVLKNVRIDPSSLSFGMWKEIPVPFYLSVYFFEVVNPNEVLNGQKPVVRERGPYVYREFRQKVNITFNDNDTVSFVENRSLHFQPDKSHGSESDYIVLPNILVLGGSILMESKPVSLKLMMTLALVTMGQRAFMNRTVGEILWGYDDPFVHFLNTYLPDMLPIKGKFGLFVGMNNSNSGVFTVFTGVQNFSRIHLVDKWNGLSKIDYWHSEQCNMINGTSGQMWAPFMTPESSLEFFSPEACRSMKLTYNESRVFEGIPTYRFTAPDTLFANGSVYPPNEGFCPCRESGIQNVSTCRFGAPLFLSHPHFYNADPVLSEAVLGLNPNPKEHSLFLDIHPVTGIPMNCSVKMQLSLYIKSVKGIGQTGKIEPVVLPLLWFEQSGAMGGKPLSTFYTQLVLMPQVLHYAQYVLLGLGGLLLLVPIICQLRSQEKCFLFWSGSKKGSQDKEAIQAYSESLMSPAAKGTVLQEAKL
Description: (§1) Inhibitor of scavenger receptor B1 can protect human RBCs in the mouse system. RGSKI mice were treated with scavenger receptor B1 named BLT-1 (2 mg per mouse). One hour after treatment, mice were infused with human RBCs and peripheral blood was collected at indicated time points. Control: PBS.
as §1, with “ITX7650 or ITX5061 (1” for “BLT-1 (2”, “mouse) obtained from iTherX.” for “mouse).”

Fah-KO mouse hepatocytes = assay: NTBC rescue of Fah-KO mouse hepatocytes; format: in vivo; conditions: NTBC in drinking water
From the text: MISTRGFah are viable, fertile, and can be bred as homozygotes when maintained on drinking water supplemented with 2-(2-nitro-4-trifluoromethylbenzoyl)-1,3-cyclohexanedione (NTBC), that blocks tyrosine metabolism upstream of FAH and prevents buildup of hepatotoxic metabolites. At 8 weeks of age, MISTRGFah. mice were implanted with commercially available, adult human hepatocytes (HuHep) via direct injection into the splenic vein, followed by gradual withdrawal of NTBC water. Regulated buildup of intracellular FA results in death of murine Fah^−/− hepatocytes and regeneration with HuHep with up to 90% repopulation by HuHep (Azuma H et al., 2007, Nature Biotechnology, 25:903-910). When plasma human albumin levels reached 2 mg/dL (FIG. 11A), indicative of significant (˜80%) HuHep repopulation, HuHepMISTRGFah mice were sublethally (80cGy) irradiated and each mouse was engrafted with […] fetal liver (FL) derived CD34+ cells. MISTRG (80cGy), MISTRGW41 and NSGW41 (no irrad) served as controls to assess the effects of human liver vs W41 mutation vs cytokine humanization on erythropoiesis and huRBC in circulation. 10 weeks post transplantation mice were analyzed for engraftment and. specifically erythroid maturation and PB huRBC.

C3 and C5 complement = conditions: cited from earlier work

CCCCCCC1CCCC1=NNC(N)=S (centres unmarked) [BLT-1]
Protection of transfused human red blood cells in mouse periphery [1]: protected

O=C1CCCC(=O)C1C(=O)c1ccc(C(F)(F)F)cc1[N+](=O)[O-] [NTBC, 2-(2-nitro-4-trifluoromethylbenzoyl)-1,3-cyclohexanedione]
Rescue of Fah-KO mouse hepatocytes (Fah-KO mouse hepatocytes): rescues the Fah-KO mouse hepatocytes from death

cobra venom factor
Maximum human RBC chimerism (C3 and C5 complement; CVF with concurrent liposomal clodronate): ~3%
% of circulating huRBC (C3 and C5 complement; only in conjunction with liposomal clodronate in NOD/SCID mice): increased the % of circulating huRBC
huRBC survival (C3 and C5 complement; only when MΦs are depleted concurrently with liposomal clodronate): significantly prolonged
